What was measured:
[1] = target: huSTING (HAQ) (Homo sapiens (Human), UniProt Q86WV6, G230A/H232R/R293Q/R71H); assay: THP-1 reporter cell line assay, THP-1 STING Lucia ISG cells; format: cell-based; details: THP-1 STING Lucia ISG cells; 24 h; top concentration 50 μM; read-out: Cellular EC50 huSTING (HAQ)
[2] = target: huSTING (WT) (Homo sapiens (Human), UniProt Q86WV6, H232R); assay: THP-1 reporter cell line assay, THP-1-Dual KI-hSTING-R232 cells; format: cell-based; details: read-out: Cellular EC50 huSTING (WT)
Chain of huSTING (WT) (Q86WV6 whole entry H232R): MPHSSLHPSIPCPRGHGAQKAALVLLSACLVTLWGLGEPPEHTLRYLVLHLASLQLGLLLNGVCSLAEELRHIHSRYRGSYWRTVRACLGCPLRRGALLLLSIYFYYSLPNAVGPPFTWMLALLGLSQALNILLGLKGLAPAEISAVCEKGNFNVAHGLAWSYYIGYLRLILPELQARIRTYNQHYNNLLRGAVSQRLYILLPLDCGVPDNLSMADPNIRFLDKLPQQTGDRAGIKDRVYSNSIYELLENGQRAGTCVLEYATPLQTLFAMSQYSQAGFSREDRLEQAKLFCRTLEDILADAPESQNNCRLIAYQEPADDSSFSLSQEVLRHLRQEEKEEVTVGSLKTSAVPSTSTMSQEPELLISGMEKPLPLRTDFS

Chain of huSTING (HAQ) (Q86WV6 whole entry R71H/G230A/H232R/R293Q): as the sequence (Q86WV6 whole entry H232R) above, with R71H, G230A, R293Q counted along it

EC50 [1] [µM] | EC50 [2] [µM] | Compound
12.9 | 24.7 | CCOC(=O)c1sc2cccc(Cl)c2c1COc1ccc(C(N)=O)nc1 [Example 45, Ethyl 3-(((6-carbamoylpyridin-3-yl)oxy)methyl)-4-chlorobenzo[b]thiophene-2-carboxylate]
18.7 | > 50 | CCOC(=O)c1sc2cccc(Cl)c2c1COc1ccc2c(N)noc2c1 [Example 47, Ethyl 3-(((3-aminobenzo[d]isoxazol-6-yl)oxy)methyl)-4-chlorobenzo[b]thiophene-2-carboxylate]
17.2 | 24.1 | CCOC(=O)c1sc2cccc(F)c2c1COc1ccc(C(N)=O)c(Cl)c1 [Example 49, Ethyl 3-((4-carbamoyl-3-chlorophenoxy)methyl)-4-fluorobenzo[b]thiophene-2-carboxylate]
> 50 | > 50 | CCOC(=O)c1sc2cccc(F)c2c1COc1ccc(C(N)=O)c(C(F)(F)F)c1 [Example 51, Ethyl 3-((4-carbamoyl-3-(trifluoromethyl)phenoxy)methyl)-4-fluorobenzo[b]thiophene-2-carboxylate]
> 50 | > 50 | CCOC(=O)c1sc2cccc(F)c2c1COc1ccc(C(N)=O)c(C)c1 [Example 53, Ethyl 3-((4-carbamoyl-3-methylphenoxy)methyl)-4-fluorobenzo[b]thiophene-2-carboxylate]
3.6 | > 50 | CCOC(=O)c1sc2cccc(F)c2c1COc1c(F)cc(C(N)=O)cc1Br [Example 55, Ethyl 3-((2-bromo-4-carbamoyl-6-fluorophenoxy)methyl)-4-fluorobenzo[b]thiophene-2-carboxylate]
0.827 | 47.4 | CCOC(=O)c1sc2cccc(C3CC3)c2c1COc1ccc(C(N)=O)cc1 [Example 60, Ethyl 3-((4-carbamoylphenoxy)methyl)-4-cyclopropylbenzo[b]thiophene-2-carboxylate]
0.95 | 1.65 | CCOC(=O)c1sc2cccc(C#N)c2c1COc1ccc(C(N)=O)cc1 [Example 62, Ethyl 3-((4-carbamoylphenoxy)methyl)-4-cyanobenzo[b]thiophene-2-carboxylate]
8.03 | > 50 | CCOC(=O)c1sc2cccc(Cl)c2c1COc1ccc(C(N)=O)c(F)c1F [Example 66, Ethyl 3-((4-carbamoyl-2,3-difluorophenoxy)methyl)-4-chlorobenzo[b]thiophene-2-carboxylate]
0.26 | 1.63 | CCOC(=O)c1sc2cccc(Cl)c2c1COc1c(F)cc(C(N)=O)cc1F [Example 68, Ethyl 3-((4-carbamoyl-2,6-difluorophenoxy)methyl)-4-chlorobenzo[b]thiophene-2-carboxylate]
7.44 | > 50 | CCOC(=O)c1sc2cccc(Cl)c2c1COc1c(C)cc(C(N)=O)cc1OC [Example 72, Ethyl 3-((4-carbamoyl-2-methoxy-6-methylphenoxy)methyl)-4-chlorobenzo[b]thiophene-2-carboxylate]
17.9 | > 50 | CCOC(=O)c1sc2cccc(Cl)c2c1CNc1ccc(C(N)=O)cc1 [Example 75, Ethyl 3-(((4-carbamoylphenyl)amino)methyl)-4-chlorobenzo[b]thiophene-2-carboxylate]

The next lines start with the molecule.

Compound | EC50 [1] [µM] | EC50 [2] [µM]
CCOC(=O)c1sc2ccc(F)c(F)c2c1COc1ccc(C(N)=O)cc1 [Example 15, Ethyl 3-((4-carbamoylphenoxy)methyl)-4,5-difluorobenzo[b]thiophene-2-carboxylate] | 2.4 | 2.57
CCOC(=O)c1sc2ccc(C)c(Cl)c2c1COc1ccc(C(N)=O)cc1 [Example 17, Ethyl 3-((4-carbamoylphenoxy)methyl)-4-chloro-5-methylbenzo[b]thiophene-2-carboxylate] | 14.8 | > 50
CCOC(=O)c1sc2cc(Cl)cc(F)c2c1COc1ccc(C(N)=O)cc1 [Example 19, Ethyl 3-((4-carbamoylphenoxy)methyl)-6-chloro-4-fluorobenzo[b]thiophene-2-carboxylate] | > 50 | > 50
CCOC(=O)c1sc2cccc(Br)c2c1COc1ccc(C(N)=O)cc1 [Example 21, Ethyl 4-bromo-3-((4-carbamoylphenoxy)methyl)benzo[b]thiophene-2-carboxylate] | 0.474 | 0.576
CCOC(=O)c1sc2cccnc2c1COc1ccc(C(N)=O)cc1 [Example 23, Ethyl 3-((4-carbamoylphenoxy)methyl)thieno[3,2-b]pyridine-2-carboxylate] | 7.61 | 16.9
CCOC(=O)c1sc2cccc(Cl)c2c1COc1ccc(C(N)=O)c(F)c1 [Example 25, Ethyl 3-((4-carbamoyl-3-fluorophenoxy)methyl)-4-chlorobenzo[b]thiophene-2-carboxylate] | 1.6 | 1.42
CCOC(=O)c1sc2cccc(Cl)c2c1COc1cc(F)c(C(N)=O)c(F)c1 [Example 27, Ethyl 3-((4-carbamoyl-3,5-difluorophenoxy)methyl)-4-chlorobenzo[b]thiophene-2-carboxylate] | > 50 | > 50
CCOC(=O)c1sc2cccc(Cl)c2c1COc1ccc(C(N)=O)cc1OC [Example 29, Ethyl 3-((4-carbamoyl-2-methoxyphenoxy)methyl)-4-chlorobenzo[b]thiophene-2-carboxylate] | 2.68 | 6.5
CCOC(=O)c1sc2cc(F)cc(F)c2c1COc1ccc(C(N)=O)cc1 [Example 31, Ethyl 3-((4-carbamoylphenoxy)methyl)-4,6-difluorobenzo[b]thiophene-2-carboxylate] | 6.76 | 6.91
CCOC(=O)c1sc2cccc(OC)c2c1COc1ccc(C(N)=O)cc1 [Example 33, Ethyl 3-((4-carbamoylphenoxy)methyl)-4-methoxybenzo[b]thiophene-2-carboxylate] | 0.665 | 0.891
CCOC(=O)c1sc2cccc(C(F)(F)F)c2c1COc1ccc(C(N)=O)cc1 [Example 35, Ethyl 3-((4-carbamoylphenoxy)methyl)-4-(trifluoromethyl)benzo[b]thiophene-2-carboxylate] | 0.655 | 1.28
CCOC(=O)c1sc2cccc(Cl)c2c1COc1ccc(C(N)=O)cc1Cl [Example 37, Ethyl 3-((4-carbamoyl-2-chlorophenoxy)methyl)-4-chlorobenzo[b]thiophene-2-carboxylate] | 3.84 | 4.77
CCOC(=O)c1sc2cccc(Cl)c2c1COc1c(Cl)cc(C(N)=O)cc1Cl [Example 39, Ethyl 3-((4-carbamoyl-2,6-dichlorophenoxy)methyl)-4-chlorobenzo[b]thiophene-2-carboxylate] | 1.48 | 1.78
CCOC(=O)c1sc2cccc(Cl)c2c1COc1c(OC)cc(C(N)=O)cc1OC [Example 41, Ethyl 3-((4-carbamoyl-2,6-dimethoxyphenoxy)methyl)-4-chlorobenzo[b]thiophene-2-carboxylate] | 0.798 | 2.46
CCOC(=O)c1sc2cccc(Cl)c2c1COc1ccc(C(N)=O)cc1C#N [Example 43, Ethyl 3-((4-carbamoyl-2-cyanophenoxy)methyl)-4-chlorobenzo[b]thiophene-2-carboxylate] | 1.35 | 3.78

Source: patent US11613525B2 (CTXT PTY LIMITED, priority 2018, dated 2023)
